Assay in all cases: NCI tumour cell line growth inhibition, 48 h
In experiment [1] the test system is HCT-116 colon.
Experiment [2] relates to SF-268 CNS.
Experiment [3] has as its system CCRF-CEM leukemia.
Experiment [4] relates to OVCAR-4 ovarian.
For experiment [5], the system named is BT-549 breast.
Experiment [6] deals with UACC-62 melanoma.
Experiment [7] relates to SNB-19 CNS.
Experiment [8] concerns HOP-92 NSCLC.
Experiment [9] concerns CAKI-1 renal.
Experiment [10] has as its system M14 melanoma.

For four compounds, TGI and GI50 results are on record in PubChem BioAssay (NCI).

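Results reflect a 48-hour exposure of cells in 96-well plates to compound at five concentrations. GI50 = concentration required for 50% inhibition of growth. TGI is the concentration that stops growth completely.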

For `COc1ccc2c(-c3cc4ccccc4o3)cc(=O)oc2c1`, the TGI in experiment [1] was > 100 µM; in experiment [2] it was > 94 µM; in experiment [3], > 100 µM; in [4], 71.8 µM; in [5] it was > 100 µM; in experiment [6], > 100 µM. The TGI in [7] is > 100 µM; in experiment [8] it was 75.3 µM; in experiment [9], > 87.4 µM; in [10], > 100 µM.
As for `Cc1ncc(NC(=O)c2ccc(CN3CCN(C)CC3)c(C(F)(F)F)c2)cc1Nc1nccc(-c2cccnc2)n1`, the GI50 was 7.92 µM in experiment [1]; 17.4 µM in experiment [2]; 14.4 µM in experiment [3]; 15.5 µM in experiment [4]; 18.1 µM in [5]; 13.2 µM in [6]. For the same compound, the GI50 is 18 µM in [7], 4.5 µM in experiment [8], 13.7 µM in experiment [9] and 10.2 µM in experiment [10]. Further, the TGI was found to be 21.7 µM in [1]; 33.7 µM in experiment [2]; 91.9 µM in experiment [3]; 29.4 µM in experiment [4]; 32.7 µM in experiment [5]; 26.2 µM in experiment [6]. The TGI in experiment [7] came to 32.1 µM; in experiment [8], 21 µM; in [9] it was 26.7 µM; in experiment [10], 22.7 µM.
With `CCCSc1cc(Cl)nc(N)n1`, the GI50 was > 100 µM in experiment [1]; > 100 µM in [2]; > 100 µM in experiment [3]; > 100 µM in experiment [4]; 65.1 µM in [5]; > 100 µM in experiment [6]. The GI50 was > 100 µM in experiment [7], 14.8 µM in [8], 90.7 µM in experiment [9] and > 100 µM in experiment [10]. The TGI in experiment [1], in [2], in experiment [3], in [4], in experiment [5] and in experiment [6] was > 100 µM each time. Further, the TGI in experiment [7], in experiment [8], in [9] and in [10] was > 100 µM each time.
As for `CC(=O)n1c(-c2ccc(Cl)cc2)nc2c(c1=O)C(c1ccc(Cl)cc1)c1sc3c(Cl)cccc3c1O2` (stereo not given), the GI50 is 0.301 µM in experiment [1]; 0.684 µM in experiment [2]; 0.383 µM in experiment [3]; 0.696 µM in experiment [4]; 0.373 µM in experiment [5]; 0.351 µM in experiment [6]. For the same compound, the GI50 in experiment [7] is 0.469 µM; in experiment [8] it was 1.27 µM; in [9], 0.488 µM; in [10] it was 0.3 µM. In addition, the TGI in experiment [1] amounted to 1.44 µM; in experiment [2], 3.24 µM; in [3], 4.12 µM; in experiment [4] it was 4.25 µM; in experiment [5], 1.89 µM; in [6], 1.6 µM. The TGI in [7] came to 1.98 µM; in experiment [8], 4.61 µM; in [9], 3.03 µM; in [10] it was 1.24 µM.
